Series [1] has as its system Nakaseomyces glabratus. In words: Disruption of plasma membrane integrity in fluconazole resistant Candida glabrata 109 overexpressing CgCdr1p transporter assessed as fold increase in sytox green fluorescence intensity at 200 ug/ml incubated for 48 hrs by fluorescence based assay. It is filed as functional. Conditions: dose 200 µg/ml.
Series [2] has as its system Nakaseomyces glabratus. In words: Disruption of plasma membrane integrity in fluconazole resistant Candida glabrata 109 overexpressing CgCdr1p transporter assessed as fold increase in sytox green fluorescence intensity at 50 ug/ml incubated for 48 hrs by fluorescence based assay. The conditions noted are these: dose 50 µg/ml. The class given is functional.
In series [3] the test system is Saccharomyces cerevisiae. In words: Antifungal activity against fluconazole resistant Saccharomyces cerevisiae overexpressing CgCdr1p transporter assessed as reduction in fungal growth incubated for 48 hrs by checkboard assay based microplate reader analysis. It is filed as functional.
The subject of series [4] is Saccharomyces cerevisiae. The series can be described thus: Synergistic antifungal activity against fluconazole resistant Saccharomyces cerevisiae overexpressing CgCdr1p transporter assessed as reduction in fungal growth incubated for 48 hrs in presence of lapachone by checkboard assay based microplate reader analysis. The class given is functional.
In series [5] the test system is Saccharomyces cerevisiae. In words: Synergistic antifungal activity against fluconazole resistant Saccharomyces cerevisiae overexpressing CgCdr2p transporter assessed as reduction in fungal growth incubated for 48 hrs in presence of lapachone by checkboard assay based microplate reader analysis. It is filed as functional.
Series [6] deals with Saccharomyces cerevisiae. The series can be described thus: Synergistic antifungal activity against fluconazole resistant Saccharomyces cerevisiae overexpressing CgCdr1p transporter assessed as fractional inhibitory concentration incubated for 48 hrs in presence of lapachone by checkboard assay based microplate reader analysis. The class given is functional.
Series [7] has as its system Saccharomyces cerevisiae. In words: Synergistic antifungal activity against fluconazole resistant Saccharomyces cerevisiae overexpressing CgCdr2p transporter assessed as fractional inhibitory concentration incubated for 48 hrs in presence of lapachone by checkboard assay based microplate reader analysis. The class given is functional.
Series [8] relates to Saccharomyces cerevisiae. In words: Synergistic antifungal activity against fluconazole resistant Saccharomyces cerevisiae overexpressing CgCdr1p transporter assessed as reduction in fungal growth incubated for 48 hrs in presence of fluconazole by checkboard assay based microplate reader analysis. The class given is functional.
In series [9] the test system is Saccharomyces cerevisiae. In words: Synergistic antifungal activity against fluconazole resistant Saccharomyces cerevisiae overexpressing CgCdr2p transporter assessed as reduction in fungal growth incubated for 48 hrs in presence of fluconazole by checkboard assay based microplate reader analysis. It is filed as functional.
Series [10] concerns Saccharomyces cerevisiae. In words: Synergistic antifungal activity against fluconazole resistant Saccharomyces cerevisiae overexpressing CgCdr1p transporter assessed as fractional inhibitory concentration in presence of fluconazole incubated for 48 hrs by checkboard assay based microplate reader analysis. The class given is functional.
Series [11] has as its system Saccharomyces cerevisiae. The series can be described thus: Synergistic antifungal activity against fluconazole resistant Saccharomyces cerevisiae overexpressing CgCdr2p transporter assessed as fractional inhibitory concentration in presence of fluconazole incubated for 48 hrs by checkboard assay based microplate reader analysis. The class given is functional.
In series [12] the test system is Nakaseomyces glabratus. The series can be described thus: Additive antifungal activity against fluconazole resistant Candida glabrata 109 overexpressing CgCdr1p transporter assessed as reduction in fungal growth incubated for 48 hrs in presence of lapachone by checkboard assay based microplate reader analysis. The class given is functional.
The subject of series [13] is Nakaseomyces glabratus. The series can be described thus: Indifferent antifungal activity against fluconazole sensitive Candida glabrata ATCC 2001 assessed as fractional inhibitory concentration incubated for 48 hrs in presence of fluconazole by checkboard assay based microplate reader analysis. The class given is functional.
For series [14], the system named is Saccharomyces cerevisiae. The series can be described thus: Antifungal activity against fluconazole resistant Saccharomyces cerevisiae overexpressing CgCdr1p transporter assessed as reduction in fungal growth at lower concentration incubated for 48 hrs by serial dilution method. The class given is functional, organism-based.
The subject of series [15] is Saccharomyces cerevisiae. In words: Inhibition of fluconazole resistant Saccharomyces cerevisiae overexpressing CgCdr1p transporter ATPase activity assessed as reduction in inorganic phosphate release in presence of ATP incubated for 1 hr by Fiske and Sub barrow method. Conditions: concentration not given here.
For series [16], the system named is Saccharomyces cerevisiae. The series can be described thus: Inhibition of fluconazole resistant Saccharomyces cerevisiae overexpressing CgCdr2p transporter ATPase activity assessed as reduction in inorganic phosphate release in presence of ATP incubated for 1 hr by Fiske and Sub barrow method. The conditions noted are these: concentration not given here.
For series [17], the system named is Nakaseomyces glabratus. The series can be described thus: Inhibition of fluconazole resistant Candida glabrata 109 overexpressing CgCdr1p transporter ATPase activity assessed as reduction in inorganic phosphate release in presence of ATP incubated for 1 hr by Fiske and Sub barrow method. Conditions: concentration not given here.
For series [18], the system named is Erythrocyte. The series can be described thus: Hemolytic activity in human erythrocytes assessed as haemoglobin release at 12.5 ug/ml incubated for 1 hr by absorbance based method. It is filed as toxicity, cell-based. Conditions: dose 12.5 µg/ml.
For series [19], the system named is Erythrocyte. In words: Hemolytic activity in human erythrocytes assessed as haemoglobin release at 12.5 ug/ml incubated for 1 hr in presence of fluconazole by absorbance based method. The conditions noted are these: dose 12.5 µg/ml. It is filed as toxicity, cell-based.
Series [20] in a line: Inhibition of fluconazole resistant Candida glabrata 109 overexpressing CgCdr1p transporter […] cell adhesion to polystyrene at 200 ug/ml incubated for 90 mins by MTT assay. The class given is functional. Conditions: Nakaseomyces glabratus, 109, 1.5 h. (Tetrazolium dyes change colour on reduction, which living cells bring about.)
Series [21] concerns Nakaseomyces glabratus. In words: Induction of morphological changes in fluconazole resistant Candida glabrata 109 overexpressing CgCdr1p transporter assessed as decrease in biofilm thickness at 200 ug/ml by calcofluor white dye based confocal laser scanning microscopy. The conditions noted are these: dose 200.0 µg/ml. It is filed as functional, organism-based.
Series [22] concerns Saccharomyces cerevisiae. In words: Synergistic antifungal activity against fluconazole resistant Saccharomyces cerevisiae overexpressing CgCdr1p transporter assessed as fractional inhibitory concentration index incubated for 48 hrs by checkboard assay based microplate reader analysis. It is filed as functional.
Series [23] relates to Erythrocyte. The series can be described thus: Hemolytic activity in human erythrocytes assessed as haemoglobin release at 50 ug/ml incubated for 1 hr by absorbance based method. It is filed as toxicity, cell-based. The conditions noted are these: dose 50 µg/ml.
In series [24] the test system is Erythrocyte. In words: Hemolytic activity in human erythrocytes assessed as haemoglobin release at 50 ug/ml incubated for 1 hr in presence of fluconazole by absorbance based method. The conditions noted are these: dose 50 µg/ml. It is filed as toxicity, cell-based.
Series [25] deals with Saccharomyces cerevisiae. In words: Additive antifungal activity against fluconazole resistant Saccharomyces cerevisiae overexpressing CgCdr1p transporter assessed as reduction in fungal growth incubated for 48 hrs in presence of lapachone by checkboard assay based microplate reader analysis. It is filed as functional.
The test system of series [26] is Saccharomyces cerevisiae. In words: Additive antifungal activity against fluconazole resistant Saccharomyces cerevisiae overexpressing CgCdr1p transporter assessed as fractional inhibitory concentration incubated for 48 hrs in presence of lapachone by checkboard assay based microplate reader analysis. It is filed as functional.
Series [27] relates to Saccharomyces cerevisiae. In words: Additive antifungal activity against fluconazole resistant Saccharomyces cerevisiae overexpressing CgCdr1p transporter assessed as reduction in fungal growth incubated for 48 hrs in presence of fluconazole by checkboard assay based microplate reader analysis. The class given is functional.
In series [28] the test system is Saccharomyces cerevisiae. The series can be described thus: Additive antifungal activity against fluconazole resistant Saccharomyces cerevisiae overexpressing CgCdr1p transporter assessed as fractional inhibitory concentration in presence of fluconazole incubated for 48 hrs by checkboard assay based microplate reader analysis. The class given is functional.
Series [29] deals with Saccharomyces cerevisiae. In words: Additive antifungal activity against fluconazole resistant Saccharomyces cerevisiae overexpressing CgCdr1p transporter assessed as fractional inhibitory concentration index incubated for 48 hrs by checkboard assay based microplate reader analysis. The class given is functional.

As usually defined, the MIC is the lowest concentration found to suppress growth. Broadly, the inhibition is how much of the control response was suppressed.

In brackets after ≈: the same amount, converted by molar mass. Activity calls are given as the source filed them. The calls are words filed in the database; no cut-off is given here.

As for `CC1(C)CCC2=C(O1)c1ccccc1C(=O)C2=O` [LAPACHONE], the “fold change (FC)” value with Nakaseomyces glabratus [1] is given as 3; with Nakaseomyces glabratus [2] it was 1.6. The MIC with Saccharomyces cerevisiae [3] is 100 µg/mL (≈ 413 µM); with Saccharomyces cerevisiae [4] it was 25 µg/mL; with Saccharomyces cerevisiae [5], 6.25 µg/mL; in the series on Saccharomyces cerevisiae [8], 125 µg/mL; in the series with Saccharomyces cerevisiae [9], 3.9 µg/mL; with Nakaseomyces glabratus [12], 12.5 µg/mL. The FIC in the series on Saccharomyces cerevisiae [6] amounted to 0.25 µg/mL; in the series on Saccharomyces cerevisiae [7], 0.25 µg/mL; in the series with Saccharomyces cerevisiae [10] it was 0.25 µg/mL; in the series with Saccharomyces cerevisiae [11], 0.06 µg/mL; in the series on Nakaseomyces glabratus [13], 1 µg/mL. The outcome in the series with Saccharomyces cerevisiae [14] and with Nakaseomyces glabratus [21] was Active. Moreover, the inhibition amounted to 76% in the series with Saccharomyces cerevisiae [15], 46% with Saccharomyces cerevisiae [16] and 49% with Nakaseomyces glabratus [17]. Besides, the Activity entry with Erythrocyte [18] and with Erythrocyte [19] was “Non-Toxic” throughout. This compound came in with an inhibition at 200 µg/mL in [20] of 44%. Besides, the “fractional inhibitory concentration index (FICI)” value in the series on Saccharomyces cerevisiae [22] is listed as 0.5.

With `CC1(C)CC2=C(O1)c1ccccc1C(=O)C2=O` [NOR-BETA-LAPACHONE], the MIC in the series on Saccharomyces cerevisiae [3] was 50 µg/mL (≈ 219 µM); with Nakaseomyces glabratus [12] it was 50 µg/mL; in the series with Saccharomyces cerevisiae [25], 25 µg/mL; in the series on Saccharomyces cerevisiae [27] it was 62.5 µg/mL. The figures for the FIC in the series on Nakaseomyces glabratus [13], with Saccharomyces cerevisiae [26] and in the series with Saccharomyces cerevisiae [28] were 1 µg/mL, 0.5 µg/mL and 0.125 µg/mL, respectively. Further, the outcome with Saccharomyces cerevisiae [14] and in the series on Nakaseomyces glabratus [21] was Active. In addition, the inhibition with Saccharomyces cerevisiae [15] is 25%. Further, the Activity entry with Erythrocyte [23] and in the series with Erythrocyte [24] was “Non-Toxic” throughout. For the same compound, the “fractional inhibitory concentration index (FICI)” value with Saccharomyces cerevisiae [29] was found to be 0.625.
